Converted amounts (≈) assume the structure as drawn.
Key:
Format in all cases: cell-based
[1] = system: Candida albicans ATCC 24433; experiment: Antifungal MIC by broth dilution (CLSI M27-A2), RPMI 1640 with MOPS; conditions: broth macro-dilution, end point after 48 hours, MIC = 80% inhibition vs growth control (Amphotericin B: complete inhibition); for MIC: Candida albicans, ATCC24433, read-out: MIC C. albicans ATCC 24433
Procedure: (§1) The compounds of Formula 1 were tested for antifungal activity against Candida albicans, Aspergillus niger and Fusarium proliferatum. In vitro evaluation of antifungal activity was performed by determining the minimum inhibitory concentration (MIC) following standard methods (CLSI: Reference method for broth dilution antifungal susceptibility testing of yeasts; Approved standard, second edition M27-A2, 2002; CLSI: Reference method for broth dilution antifungal susceptibility testing of filamentous fungi; Approved standard M38-A, 2002). Anti-fungal susceptibility testing of these compounds of Formula 1 was done by broth dilution method using RPMI 1640 medium with MOPS buffer. Known anti-fungal agents like Fluconazole and Amphotericin-B were used as standards. End points were determined after 48 hours visually and by using spectrophotometer wherever necessary.

[2] = system: Aspergillus niger ATCC 16404; experiment: Antifungal MIC by broth dilution (CLSI M38-A), RPMI 1640 with MOPS; conditions: broth macro-dilution, end point after 48 hours, MIC = 80% inhibition vs growth control (Amphotericin B: complete inhibition); for MIC: Aspergillus niger, ATCC16404
Procedure: as §1

[3] = system: Fusarium proliferatum ATCC 10052; experiment: as above; conditions: broth macro-dilution, end point after 48 hours, MIC = 80% inhibition vs growth control (Amphotericin B: complete inhibition); for MIC: Fusarium proliferatum, ATCC10052, read-out: MIC F. proliferatum ATCC 10052
Procedure: as §1

For `CCc1cc(C#N)c(NCC(O)(Cn2cncn2)c2ccc(F)cc2F)s1` (stereo not drawn) [Compound 1l, 2-[2-(2,4-Difluorophenyl)-2-hydroxy-3-[1,2,4]triazol-1-yl-propylamino]-5-ethyl-thiophene-3-carbonitrile], the MIC [1] was 0.25 µg/mL (≈ 0.642 µM), the MIC [2] was greater than 16 µg/mL and the MIC [3] was greater than 16 µg/mL.

`CCOC(=O)c1c(NCC(O)(Cn2cncn2)c2ccc(F)cc2F)sc2c1CCC2` (stereo not drawn) [Compound 1g, Ethyl 2-[2-(2,4-difluorophenyl)-2-hydroxy-3-[1,2,4]triazol-1-yl-propylamino]-5,6-dihydro-4H-cyclopenta[b]thiophene-3-carboxylate] was tested, and the MIC [1] was 2 µg/mL (≈ 4.46 µM), the MIC [2] was greater than 8 µg/mL and the MIC [3] was greater than 8 µg/mL.

Work on `CCCCCCCc1cc(C(=O)OCC)c(NCC(O)(Cn2cncn2)c2ccc(F)cc2F)s1` (stereo not drawn) [Compound 1d, Ethyl 2-[2-(2,4-difluorophenyl)-2-hydroxy-3[1,2,4]triazol-1-yl-propylamino]-5-heptyl-thiophene-3-carboxylate] yielded an MIC [1] greater than 8 µg/mL, an MIC [2] greater than 8 µg/mL and an MIC [3] greater than 8 µg/mL.

In the case of `CCOC(=O)c1cc(C)sc1NCC(O)(Cn1cncn1)c1ccc(F)cc1F` (stereo not drawn) [Compound 1a, Ethyl 2-[2-(2,4-difluorophenyl)-2-hydroxy-3-[1,2,4]triazol-1-yl-propylamino]-5-methyl-thiophene-3-carboxylate], the MIC [1] is reported as 2 µg/mL (≈ 4.73 µM), the MIC [2] is reported as greater than 16 µg/mL and the MIC [3] is reported as greater than 16 µg/mL.

Molecule `CCCc1cc(C(=O)OCC)c(NCC(O)(Cn2cncn2)c2ccc(F)cc2F)s1` (stereo not drawn) [Compound 1c, Ethyl 2-[2-(2,4-difluorophenyl)-2-hydroxy-3-[1,2,4]triazol-1-yl-propylamino]-5-propyl-thiophene-3-carboxylate] has an MIC [1] of 2 µg/mL (≈ 4.44 µM), an MIC [2] greater than 16 µg/mL and an MIC [3] greater than 16 µg/mL.

Molecule `CCCCCc1cc(C#N)c(NCC(O)(Cn2cncn2)c2ccc(F)cc2F)s1` (stereo not drawn) [Compound 1n, 2-[2-(2,4-Difluorophenyl)-2-hydroxy-3-[1,2,4]triazol-1-yl-propylamino]-5-pentyl-thiophene-3-carbonitrile] has an MIC [1] of 0.25 µg/mL (≈ 0.579 µM), an MIC [2] greater than 4 µg/mL and an MIC [3] greater than 4 µg/mL.

`C[C@@H]1[C@H](O)[C@@H](C)/C=C/C=C/C=C/C=C/C=C/C=C/C=C/[C@H](O[C@@H]2O[C@H](C)[C@@H](O)[C@H](N)[C@@H]2O)C[C@@H]2O[C@](O)(C[C@@H](O)C[C@@H](O)[C@H](O)CC[C@@H](O)C[C@@H](O)CC(=O)O[C@H]1C)C[C@H](O)[C@H]2C(=O)O` [Amphotericin B, reference compound] was tested, and the “MIC C. albicans ATCC 24433” value [1] was 0.25 µg/mL (≈ 0.271 µM), the “MIC A. niger ATCC 16404” value [2] was 1 µg/mL (≈ 1.08 µM) and the “MIC F. proliferatum ATCC 10052” value [3] was 2 µg/mL (≈ 2.16 µM).

Work on `N#Cc1c(NCC(O)(Cn2cncn2)c2ccc(F)cc2F)sc2c1CCC2` (stereo not drawn) [Compound 1o, 2-[2-(2,4-Difluorophenyl)-2-hydroxy-3-[1,2,4]triazol-1-yl-propylamino]-5,6-dihydro-4H-cyclopenta[b]thiophene-3-carbonitrile] yielded an MIC [1] of 0.5 µg/mL (≈ 1.25 µM), an MIC [2] greater than 16 µg/mL and an MIC [3] greater than 16 µg/mL.

In the case of `CCCc1cc(C#N)c(NCC(O)(Cn2cncn2)c2ccc(F)cc2F)s1` (stereo not drawn) [Compound 1m, 2-[2-(2,4-Difluorophenyl)-2-hydroxy-3-[1,2,4]triazol-1-yl-propylamino]-5-propyl-thiophene-3-carbonitrile], the MIC [1] is reported as 0.12 µg/mL (≈ 0.297 µM), the MIC [2] is reported as greater than 32 µg/mL and the MIC [3] is reported as greater than 32 µg/mL.

For `CCOC(=O)c1cc(CC)sc1NCC(O)(Cn1cncn1)c1ccc(F)cc1F` (stereo not drawn) [Compound 1b, Ethyl 2-[2-(2,4-difluorophenyl)-2-hydroxy-3-[1,2,4]triazol-1-yl-propylamino]-5-ethyl-thiophene-3-carboxylate], the MIC [1] was 2 µg/mL (≈ 4.58 µM), the MIC [2] was greater than 4 µg/mL and the MIC [3] was greater than 4 µg/mL.

With `Cc1cc(C#N)c(NCC(O)(Cn2cncn2)c2ccc(F)cc2F)s1` (stereo not drawn) [Compound 1k, 2-[2-(2,4-Difluorophenyl)-2-hydroxy-3-[1,2,4]triazol-1-yl-propylamino]-5-methyl-thiophene-3-carbonitrile] the MIC [1] was 0.5 µg/mL (≈ 1.33 µM), the MIC [2] was greater than 32 µg/mL and the MIC [3] was greater than 32 µg/mL.

`OC(Cn1cncn1)(Cn1cncn1)c1ccc(F)cc1F` [Fluconazole] was tested, and the MIC [1] was 1 µg/mL (≈ 3.27 µM), the MIC [2] was 128 µg/mL (≈ 418 µM) and the MIC [3] was greater than 128 µg/mL.

Molecule `CCCCCCc1sc(NCC(O)(Cn2cncn2)c2ccc(F)cc2F)c(C(=O)OCC)c1C` (stereo not drawn) [Compound 1j, Ethyl 2-[2-(2,4-difluorophenyl)-2-hydroxy-3-[1,2,4]triazol-1-yl-propylamino]-5-hexyl-4-methyl-thiophene-3-carboxylate] has an MIC [1] greater than 2 µg/mL, an MIC [2] greater than 2 µg/mL and an MIC [3] greater than 2 µg/mL.

With `CCOC(=O)c1c(NCC(O)(Cn2cncn2)c2ccc(F)cc2F)sc2c1CCCC2` (stereo not drawn) [Compound 1h, Ethyl 2-[2-(2,4-difluorophenyl)-2-hydroxy-3-[1,2,4]triazol-1-yl-propylamino]-4,5,6,7-tetrahydro-benzo[b]thiophene-3-carboxylate] the MIC [1] was 4 µg/mL (≈ 8.65 µM), the MIC [2] was greater than 4 µg/mL and the MIC [3] was greater than 4 µg/mL.

With `CCCCCCCCCCc1cc(C(=O)OCC)c(NCC(O)(Cn2cncn2)c2ccc(F)cc2F)s1` (stereo not drawn) [Compound 1e, Ethyl 5-n-decyl-2-[2-(2,4-difluorophenyl)-2-hydroxy-3-[1,2,4]triazol-1-yl-propylamino]-thiophene-3-carboxylate] the MIC [1] was greater than 4 µg/mL, the MIC [2] was greater than 4 µg/mL and the MIC [3] was greater than 4 µg/mL.

With `CCOC(=O)c1cc(CCCOCc2ccccc2)sc1NCC(O)(Cn1cncn1)c1ccc(F)cc1F` (stereo not drawn) [Compound 1f, Ethyl 5-(3-benzyloxypropyl)-2-[2-(2,4-difluorophenyl)-2-hydroxy-3-[1,2,4]triazol-1-yl-propylamino]-thiophene-3-carboxylate] the MIC [1] was greater than 4 µg/mL, the MIC [2] was greater than 4 µg/mL and the MIC [3] was greater than 4 µg/mL.

Work on `CCOC(=O)c1c(NCC(O)(Cn2cncn2)c2ccc(F)cc2F)sc2c1CCCCC2` (stereo not drawn) [Compound 1i, Ethyl 2-[2-(2,4-difluorophenyl)-2-hydroxy-3-[1,2,4]triazol-1-yl-propylamino]-5,6,7,8-tetrahydro-4H-cyclohepta[b]thiophene-3-carboxylate] yielded an MIC [1] of 8 µg/mL (≈ 16.8 µM), an MIC [2] greater than 8 µg/mL and an MIC [3] greater than 8 µg/mL.
